Patent US20110256605A1, “CELLS WITH NON-NATURAL PHYSIOLOGIES DERIVED BY EXPRESSING LIGHT-POWERED PROTON PUMPS IN ONE OR MORE MEMBRANES” (The Regents of the University of California, a California …, priority 2010, published 2011)

Test system: E. coli flagellar motor / cellular pmf
Assay type: cell-based
Method: Cell culture. We expressed the SAR86 γ-proteobacterial PR-variant (Geneart, Inc) in E. coli cells (RP437 DE3 ΔcheY Cm^R) using a T7 based expression system (pET200, Kan^R, Invitrogen). Cells were grown in T broth (1% Tryptone, 0.5% NaCl) supplemented with kanamycin (25 μg/ml). In mid-log phase, PR expression was induced with 1 mM IPTG and the medium was supplemented with 10 μM ethanolic all-trans-retinal. Cells were collected in late log phase by gentle centrifugation (4500×g, 5 min) and carefully resuspended in motility medium (1 mM PBS (Ambion), 0.1 mM EDTA, pH 7.4). PR^+ denotes cells expressing proteorhodopsin, and PR^− denotes cells (RP437 DE3 ΔcheY Cm^R) without the PR plasmid. […] Unless otherwise noted, all experiments were done in glucose free motility medium and at room temperature.
Instrumentation. […]
To increase the accuracy of the flagellar rotation measurements, a tethered cell geometry was employed (FIG. 2A) which permitted the extended observation of the same bacterium in different illumination conditions. PR^+ cells were allowed to stick to the coverslip via a flagellum, and the angular rotation rate of cells was monitored (FIG. 2A). […]

SMILES	Effect on bacterial motility (100 μM, low oxygen cultures, not restored with 50 seconds of green illumination)	IC50 (without green light, azide 0 to 110 mM, read-out: Azide concentration at which pmf dropped to 50% of its original value) [mM]
N#CC(C#N)=NNc1cccc(Cl)c1 [CCCP, carbonyl cyanide 3-chlorophenylhydrazone]	eliminated all bacterial motility	–
[N-]=[N+]=[N-] [azide, sodium azide]	–	55
